Among the data in ChEMBL document CHEMBL3400097, “Effect of arginine methylation on the RNA recognition and cellular uptake of Tat-derived peptides” (Bioorg Med Chem, 2015) are Kd and Activity values, retold here.

pKd: −log10 of the molar value.

The test system of one series is Nucleic Acid. The series can be described thus: Binding affinity to HIV TAR RNA by electrophoretic mobility shift assay in presence of Escherichia coli tRNA. Type of series: nucleic-acid assay, Human immunodeficiency virus. Background: In EMSA bound probe runs differently from free probe, usually more slowly.
A further series concerns Jurkat. The series can be described thus: Cytotoxicity against human Jurkat cells assessed as cell viability at 120 uM after 4 hrs by WST-1 assay. Type of series: cell-based. Background: Tetrazolium dyes change colour on reduction, which living cells bring about.

For `CC(=O)N[C@@H](Cc1ccc(O)cc1)C(=O)NCC(=O)N[C@@H](CCCNC(=N)N)C(=O)N[C@@H](CCCCN)C(=O)N[C@@H](CCCCN)C(=O)N[C@@H](CCCNC(=N)N(C)C)C(=O)N[C@@H](CCCNC(=N)N)C(=O)N[C@@H](CCC(N)=O)C(=O)N[C@@H](CCCNC(=N)N)C(=O)N[C@@H](CCCNC(=N)N)C(=O)N[C@@H](CCCNC(=N)N)C(N)=O`, the negative-log Kd (pKd) (commonly the negative decadic logarithm of the Kd, by convention in mol/L) with Nucleic Acid is 6.41. In the series with Jurkat, the Activity result is “Non-toxic”.
`CC(=O)N[C@@H](Cc1ccc(O)cc1)C(=O)NCC(=O)N[C@@H](CCCNC(=N)N)C(=O)N[C@@H](CCCCN)C(=O)N[C@@H](CCCCN)C(=O)N[C@@H](CCCNC(=N)N)C(=O)N[C@@H](CCCNC(=N)N(C)C)C(=O)N[C@@H](CCC(N)=O)C(=O)N[C@@H](CCCNC(=N)N)C(=O)N[C@@H](CCCNC(=N)N)C(=O)N[C@@H](CCCNC(=N)N)C(N)=O`: the pKd in the series on Nucleic Acid was 6.06. Moreover, the Activity result with Jurkat is “Non-toxic”.
As to `CC(=O)N[C@@H](Cc1ccc(O)cc1)C(=O)NCC(=O)N[C@@H](CCCNC(=N)N)C(=O)N[C@@H](CCCCN)C(=O)N[C@@H](CCCCN)C(=O)N[C@@H](CCCNC(=N)N)C(=O)N[C@@H](CCCNC(=N)N)C(=O)N[C@@H](CCC(N)=O)C(=O)N[C@@H](CCCNC(=N)N(C)C)C(=O)N[C@@H](CCCNC(=N)N)C(=O)N[C@@H](CCCNC(=N)N)C(N)=O`, in the series on Nucleic Acid, the pKd is 6.40. In addition, the Activity entry with Jurkat was “Non-toxic”.
On the same counts, the results for `CC(=O)N[C@@H](Cc1ccc(O)cc1)C(=O)NCC(=O)N[C@@H](CCCNC(=N)N)C(=O)N[C@@H](CCCCN)C(=O)N[C@@H](CCCCN)C(=O)N[C@@H](CCCNC(=N)N)C(=O)N[C@@H](CCCNC(=N)N)C(=O)N[C@@H](CCC(N)=O)C(=O)N[C@@H](CCCNC(=N)N)C(=O)N[C@@H](CCCNC(=N)N(C)C)C(=O)N[C@@H](CCCNC(=N)N)C(N)=O` are 6.39 and “Non-toxic”.
Turning to `CC(=O)N[C@@H](Cc1ccc(O)cc1)C(=O)NCC(=O)N[C@@H](CCCNC(=N)N)C(=O)N[C@@H](CCCCN)C(=O)N[C@@H](CCCCN)C(=O)N[C@@H](CCCNC(=N)N)C(=O)N[C@@H](CCCNC(=N)N)C(=O)N[C@@H](CCC(N)=O)C(=O)N[C@@H](CCCNC(=N)N)C(=O)N[C@@H](CCCNC(=N)N)C(=O)N[C@@H](CCCNC(=N)N(C)C)C(N)=O`, in the series on Nucleic Acid, the negative logarithm of the Kd (pKd) was 6.56. The Activity result in the series on Jurkat was “Non-toxic”.
On the same counts, the results for `C/N=C(\NC)NCCC[C@H](NC(=O)CNC(=O)[C@H](Cc1ccc(O)cc1)NC(C)=O)C(=O)N[C@@H](CCCCN)C(=O)N[C@@H](CCCCN)C(=O)N[C@@H](CCCNC(=N)N)C(=O)N[C@@H](CCCNC(=N)N)C(=O)N[C@@H](CCC(N)=O)C(=O)N[C@@H](CCCNC(=N)N)C(=O)N[C@@H](CCCNC(=N)N)C(=O)N[C@@H](CCCNC(=N)N)C(N)=O` are 6.66 and “Non-toxic”.
On the same counts, the results for `C/N=C(\NC)NCCC[C@H](NC(=O)[C@H](CCCCN)NC(=O)[C@H](CCCCN)NC(=O)[C@H](CCCNC(=N)N)NC(=O)CNC(=O)[C@H](Cc1ccc(O)cc1)NC(C)=O)C(=O)N[C@@H](CCCNC(=N)N)C(=O)N[C@@H](CCC(N)=O)C(=O)N[C@@H](CCCNC(=N)N)C(=O)N[C@@H](CCCNC(=N)N)C(=O)N[C@@H](CCCNC(=N)N)C(N)=O` are 6.48 and “Non-toxic”.
In the case of `C/N=C(\NC)NCCC[C@H](NC(=O)[C@H](CCCNC(=N)N)NC(=O)[C@H](CCCCN)NC(=O)[C@H](CCCCN)NC(=O)[C@H](CCCNC(=N)N)NC(=O)CNC(=O)[C@H](Cc1ccc(O)cc1)NC(C)=O)C(=O)N[C@@H](CCC(N)=O)C(=O)N[C@@H](CCCNC(=N)N)C(=O)N[C@@H](CCCNC(=N)N)C(=O)N[C@@H](CCCNC(=N)N)C(N)=O`, the negative logarithm of the Kd (pKd) in the series on Nucleic Acid was 6.24. Further, the Activity result with Jurkat is on record as “Non-toxic”.
On the same counts, the results for `C/N=C(\NC)NCCC[C@H](NC(=O)[C@H](CCC(N)=O)NC(=O)[C@H](CCCNC(=N)N)NC(=O)[C@H](CCCNC(=N)N)NC(=O)[C@H](CCCCN)NC(=O)[C@H](CCCCN)NC(=O)[C@H](CCCNC(=N)N)NC(=O)CNC(=O)[C@H](Cc1ccc(O)cc1)NC(C)=O)C(=O)N[C@@H](CCCNC(=N)N)C(=O)N[C@@H](CCCNC(=N)N)C(N)=O` are 6.28 and “Non-toxic”.
